System: stable U20S reporter cells harboring Per2-dLuc
Test: Per2 assay for evaluating the potency of test compounds (circadian luciferase reporter)
Format: cell-based
Conditions: amplitude of Per2-dLuc luminescence vs log concentration
Method: Compounds were screened by using a high-throughput circadian assay system as previously described in Zhang, E. E. et al. Cell, 2009, 139, 199-210. In brief, stable U20S reporter cells harboring Per2-dLuc were plated at a density of 30,000 cells/well in Corning 96-well, solid white, flat bottom, TC-treated microplates (Corning®), and incubated for 48 hours at 37° C. in the presence of 5% CO2 in a medium of Dulbecco's Modified Eagle Medium (DMEM) supplemented with 10% fetal bovine serum (FBS) and penicillin (100 units/mL)-streptomycin (100 μg/mL). […] DMSO stocks are then serially diluted in DMSO, typically diluting 3-fold for each dilution step. Following the 48 h period, cell culture medium is removed from plated cells and cells are synchronized with 200 μL/well of complete cell culture medium (described above), supplemented with 5 μM forskolin (Tocris®) and 1 mM beetle luciferin (Promega®). Immediately following synchronization, 1 μL of compound dilution is added to each well. Plates are sealed, shaken briefly, and gene expression was monitored by measuring luminescence (Tecan® Infinite M200 or Tecan® Infinite M200 Pro) continuously for a minimum of 3 days at 35° C. Raw luminescence data (counts) are first analyzed using Multicycle™ software (Actimetrics, Inc.) to determine the amplitude (amp), period, and phase (phz) for each compound concentration. The period length for control wells (i.e. no compound, DMSO only) should be 26-30 h. Amp data are then plotted against the logarithm compound concentration (M) and analyzed by nonlinear regression analysis to determine the EC50.

Structure (SMILES)	EC50 [nM]
O=C1CCCCN1CC(O)Cn1c2ccccc2c2ccccc21 (centres unmarked) [Compound 1, 1-(3-(9H-carbazol-9-yl)-2-hydroxypropyl)piperidin-2-one]	171
CN1CCCN(CC(O)Cn2c3ccccc3c3ccccc32)C1=O (centres unmarked) [Compound 2, 1-(3-(9H-carbazol-9-yl)-2-hydroxypropyl)-3-methyltetrahydropyrimidin-2(1H)-one]	736
O=C1NCCCN1CC(O)Cn1c2ccccc2c2ccccc21 (centres unmarked) [Compound 3, 1-(3-(9H-carbazol-9-yl)-2-hydroxypropyl)tetrahydropyrimidin-2(1H)-one]	299
O=C1CCCCN1CC(O)Cn1c2ccc(F)cc2c2cc(F)ccc21 (centres unmarked) [Compound 4, 1-(3-(3,6-difluoro-9H-carbazol-9-yl)-2-hydroxypropyl)piperidin-2-one]	192
CC(O)(CN1CCCCC1=O)Cn1c2ccc(F)cc2c2cc(F)ccc21 (centres unmarked) [Compound 5, 1-(3-(3,6-difluoro-9H-carbazol-9-yl)-2-hydroxy-2-methylpropyl)piperidin-2-one]	536
CN1CCCN(CC(O)Cn2c3ccc(F)cc3c3cc(F)ccc32)C1=O (centres unmarked) [Compound 6, 1-(3-(3,6-difluoro-9H-carbazol-9-yl)-2-hydroxypropyl)-3-methyltetrahydropyrimidin-2(1H)-one]	719
O=C1CCCN1CC(O)Cn1c2ccc(F)cc2c2cc(F)ccc21 (centres unmarked) [Compound 7, 1-(3-(3,6-difluoro-9H-carbazol-9-yl)-2-hydroxypropyl)pyrrolidin-2-one]	625
CC(O)(CN1CCCC1=O)Cn1c2ccc(F)cc2c2cc(F)ccc21 (centres unmarked) [Compound 8, 1-(3-(3,6-difluoro-9H-carbazol-9-yl)-2-hydroxy-2-methylpropyl)pyrrolidin-2-one]	527
CC(O)(CN1CCC(F)C1=O)Cn1c2ccc(F)cc2c2cc(F)ccc21 (centres unmarked) [Compound 10, 1-(3-(3,6-difluoro-9H-carbazol-9-yl)-2-hydroxy-2-methylpropyl)-3-fluoropyrrolidin-2-one]	487
O=C1C(F)CCCN1CC(O)Cn1c2ccc(F)cc2c2cc(F)ccc21 (centres unmarked) [Compound 11, 1-(3-(3,6-difluoro-9H-carbazol-9-yl)-2-hydroxypropyl)-3-fluoropiperidin-2-one]	120
CC(O)(CN1CCCC(F)C1=O)Cn1c2ccc(F)cc2c2cc(F)ccc21 (centres unmarked) [Compound 12, 1-(3-(3,6-difluoro-9H-carbazol-9-yl)-2-hydroxy-2-methylpropyl)-3-fluoropiperidin-2-one]	909
O=C1N(CC(O)Cn2c3ccc(F)cc3c3cc(F)ccc32)CCCC1(F)F (centres unmarked) [Compound 13, 1-(3-(3,6-difluoro-9H-carbazol-9-yl)-2-hydroxypropyl)-3,3-difluoropiperidin-2-one]	288
CC(O)(CN1CCCC(F)(F)C1=O)Cn1c2ccc(F)cc2c2cc(F)ccc21 (centres unmarked) [Compound 14, 1-(3-(3,6-difluoro-9H-carbazol-9-yl)-2-hydroxy-2-methylpropyl)-3,3-difluoropiperidin-2-one]	541
CC1(C)CCN(CC(O)Cn2c3ccc(F)cc3c3cc(F)ccc32)C1=O (centres unmarked) [Compound 15, 1-(3-(3,6-difluoro-9H-carbazol-9-yl)-2-hydroxypropyl)-3,3-dimethylpyrrolidin-2-one]	164
CC1(C)CCCN(CC(O)Cn2c3ccc(F)cc3c3cc(F)ccc32)C1=O (centres unmarked) [Compound 16, 1-(3-(3,6-difluoro-9H-carbazol-9-yl)-2-hydroxypropyl)-3,3-dimethylpiperidin-2-one]	463
CCC1CCN(CC(O)Cn2c3ccc(F)cc3c3cc(F)ccc32)C1=O (centres unmarked) [Compound 17, 1-(3-(3,6-difluoro-9H-carbazol-9-yl)-2-hydroxypropyl)-3-ethylpyrrolidin-2-one]	417
O=C1C(C2CCCC2)CCN1CC(O)Cn1c2ccc(F)cc2c2cc(F)ccc21 (centres unmarked) [Compound 18, 3-cyclopentyl-1-(3-(3,6-difluoro-9H-carbazol-9-yl)-2-hydroxypropyl)pyrrolidin-2-one]	338
O=C1C(c2ccccc2)CCCN1CC(O)Cn1c2ccc(F)cc2c2cc(F)ccc21 (centres unmarked) [Compound 19, 1-(3-(3,6-difluoro-9H-carbazol-9-yl)-2-hydroxypropyl)-3-phenylpiperidin-2-one]	547
O=C1C(C2CCCCC2)CCCN1CC(O)Cn1c2ccc(F)cc2c2cc(F)ccc21 (centres unmarked) [Compound 20, 3-cyclohexyl-1-(3-(3,6-difluoro-9H-carbazol-9-yl)-2-hydroxypropyl)piperidin-2-one]	379

Structure (SMILES)	EC50 [nM]
CC(O)(CN1CCCC(C2CCCCC2)C1=O)Cn1c2ccc(F)cc2c2cc(F)ccc21 (centres unmarked) [Compound 21, 3-cyclohexyl-1-(3-(3,6-difluoro-9H-carbazol-9-yl)-2-hydroxy-2-methylpropyl)piperidin-2-one]	1040
CC(C)C1CCN(CC(O)Cn2c3ccc(F)cc3c3cc(F)ccc32)C1=O (centres unmarked) [Compound 22, 1-(3-(3,6-difluoro-9H-carbazol-9-yl)-2-hydroxypropyl)-3-isopropylpyrrolidin-2-one]	261
O=C1C(C2CCCC2)CCCN1CC(O)Cn1c2ccc(F)cc2c2cc(F)ccc21 (centres unmarked) [Compound 23, 3-cyclopentyl-1-(3-(3,6-difluoro-9H-carbazol-9-yl)-2-hydroxypropyl)piperidin-2-one]	399
CCC1CCCN(CC(O)Cn2c3ccc(F)cc3c3cc(F)ccc32)C1=O (centres unmarked) [Compound 24, 1-(3-(3,6-difluoro-9H-carbazol-9-yl)-2-hydroxypropyl)-3-ethylpiperidin-2-one]	332
CC(C)C1CCCN(CC(O)Cn2c3ccc(F)cc3c3cc(F)ccc32)C1=O (centres unmarked) [Compound 25, 1-(3-(3,6-difluoro-9H-carbazol-9-yl)-2-hydroxypropyl)-3-isopropylpiperidin-2-one]	79
CC(C)C1CCCN(CC(C)(O)Cn2c3ccc(F)cc3c3cc(F)ccc32)C1=O (centres unmarked) [Compound 26, 1-(3-(3,6-difluoro-9H-carbazol-9-yl)-2-hydroxy-2-methylpropyl)-3-isopropylpiperidin-2-one]	1050
CC1CCCN(CC(O)Cn2c3ccc(F)cc3c3cc(F)ccc32)C1=O (centres unmarked) [Compound 27, 1-(3-(3,6-difluoro-9H-carbazol-9-yl)-2-hydroxypropyl)-3-methylpiperidin-2-one]	478
CC1CCCN(CC(C)(O)Cn2c3ccc(F)cc3c3cc(F)ccc32)C1=O (centres unmarked) [Compound 28, 1-(3-(3,6-difluoro-9H-carbazol-9-yl)-2-hydroxy-2-methylpropyl)-3-methylpiperidin-2-one]	824
CC1CCN(CC(O)Cn2c3ccc(F)cc3c3cc(F)ccc32)C1=O (centres unmarked) [Compound 29, 1-(3-(3,6-difluoro-9H-carbazol-9-yl)-2-hydroxypropyl)-3-methylpyrrolidin-2-one]	422
CC1CCN(CC(C)(O)Cn2c3ccc(F)cc3c3cc(F)ccc32)C1=O (centres unmarked) [Compound 30, 1-(3-(3,6-difluoro-9H-carbazol-9-yl)-2-hydroxy-2-methylpropyl)-3-methylpyrrolidin-2-one]	895
CC1(C)CC(=O)N(CC(O)Cn2c3ccc(F)cc3c3cc(F)ccc32)C1 (centres unmarked) [Compound 31, 1-(3-(3,6-difluoro-9H-carbazol-9-yl)-2-hydroxypropyl)-4,4-dimethylpyrrolidin-2-one]	832
CCC1CCC(=O)N1CC(O)Cn1c2ccc(F)cc2c2cc(F)ccc21 (centres unmarked) [Compound 32, 1-(3-(3,6-difluoro-9H-carbazol-9-yl)-2-hydroxypropyl)-5-ethylpyrrolidin-2-one]	539
CCC1CCC(=O)N1CC(C)(O)Cn1c2ccc(F)cc2c2cc(F)ccc21 (centres unmarked) [Compound 33, 1-(3-(3,6-difluoro-9H-carbazol-9-yl)-2-hydroxy-2-methylpropyl)-5-ethylpyrrolidin-2-one]	625
CC1CCC(=O)N1CC(O)Cn1c2ccc(F)cc2c2cc(F)ccc21 (centres unmarked) [Compound 34, 1-(3-(3,6-difluoro-9H-carbazol-9-yl)-2-hydroxypropyl)-5-methylpyrrolidin-2-one]	286
CC1CCC(=O)N1CC(C)(O)Cn1c2ccc(F)cc2c2cc(F)ccc21 (centres unmarked) [Compound 35, 1-(3-(3,6-difluoro-9H-carbazol-9-yl)-2-hydroxy-2-methylpropyl)-5-methylpyrrolidin-2-one]	678
CC1CCN(CC(C)(O)Cn2c3ccc(F)cc3c3cc(F)ccc32)C(=O)C1 (centres unmarked) [Compound 36, 1-(3-(3,6-difluoro-9H-carbazol-9-yl)-2-hydroxy-2-methylpropyl)-4-methylpiperidin-2-one]	760
CC1CCC(=O)N(CC(O)Cn2c3ccc(F)cc3c3cc(F)ccc32)C1 (centres unmarked) [Compound 37, 1-(3-(3,6-difluoro-9H-carbazol-9-yl)-2-hydroxypropyl)-5-methylpiperidin-2-one]	224
CC1CCC(=O)N(CC(C)(O)Cn2c3ccc(F)cc3c3cc(F)ccc32)C1 (centres unmarked) [Compound 38, 1-(3-(3,6-difluoro-9H-carbazol-9-yl)-2-hydroxy-2-methylpropyl)-5-methylpiperidin-2-one]	1220
CC1CCCC(=O)N1CC(O)Cn1c2ccc(F)cc2c2cc(F)ccc21 (centres unmarked) [Compound 39, 1-(3-(3,6-difluoro-9H-carbazol-9-yl)-2-hydroxypropyl)-6-methylpiperidin-2-one]	342
